# Data published in ChEMBL document CHEMBL1201862, “PubChem BioAssay data set” (2004).
# Active and inactive are the calls of the source.
# Columns and labels:
# [1] = molecular target: T1, Small ubiquitin-related modifier 1 (Homo sapiens, UniProt P63165); assay: SUMO1 protein-protein binding blockers, potency – biochemical, FRET, dose response (AID 624383); assay type: functional; conditions: read-out: IC50_Mean
# [2] = molecular target: T2, Calpain-2 catalytic subunit (Sus scrofa, UniProt P43367); assay: m-calpain protease blockers, concentration series – biochemical, fluorogenic peptide substrate, dose response (AID 1420); assay type: functional
# T2 sequence (P43367 whole entry): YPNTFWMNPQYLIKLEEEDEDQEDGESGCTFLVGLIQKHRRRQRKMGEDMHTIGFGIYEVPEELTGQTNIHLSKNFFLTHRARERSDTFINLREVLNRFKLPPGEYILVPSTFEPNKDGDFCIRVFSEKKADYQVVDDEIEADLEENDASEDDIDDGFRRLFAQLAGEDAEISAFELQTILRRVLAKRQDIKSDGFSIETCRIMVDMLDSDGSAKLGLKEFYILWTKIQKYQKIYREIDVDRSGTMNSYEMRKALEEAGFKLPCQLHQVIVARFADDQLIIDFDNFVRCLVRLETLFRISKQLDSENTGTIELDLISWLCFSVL
# [3] = molecular target: Eukaryotic translation initiation factor 4E (Mus musculus, UniProt P63073); assay: blockers of eIF4G binding by eIF4E – biochemical, TR-FRET, dose response (AID 855); assay type: functional;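 further: potency for disrupting eIF4E binding to eIF4GI seen as loss of FRET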
# Sequence of Eukaryotic translation initiation factor 4E (P63073 whole entry): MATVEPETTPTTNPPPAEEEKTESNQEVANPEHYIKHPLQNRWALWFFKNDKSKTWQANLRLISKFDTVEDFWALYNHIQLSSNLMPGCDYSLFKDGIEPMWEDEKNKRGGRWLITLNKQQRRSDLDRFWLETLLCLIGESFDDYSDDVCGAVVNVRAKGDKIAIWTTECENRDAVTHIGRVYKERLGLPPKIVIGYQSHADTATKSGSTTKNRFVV
# [4] = molecular target: Tyrosine-protein phosphatase non-receptor type 5 (Homo sapiens, UniProt P54829); assay: PTPN5 enzyme inhibition – biochemical, fluorescence intensity, uHTS hits, confirmation (AID 602372); assay type: functional; conditions: read-out: IC50_Mean
# Sequence of Tyrosine-protein phosphatase non-receptor type 5 (P54829 whole entry): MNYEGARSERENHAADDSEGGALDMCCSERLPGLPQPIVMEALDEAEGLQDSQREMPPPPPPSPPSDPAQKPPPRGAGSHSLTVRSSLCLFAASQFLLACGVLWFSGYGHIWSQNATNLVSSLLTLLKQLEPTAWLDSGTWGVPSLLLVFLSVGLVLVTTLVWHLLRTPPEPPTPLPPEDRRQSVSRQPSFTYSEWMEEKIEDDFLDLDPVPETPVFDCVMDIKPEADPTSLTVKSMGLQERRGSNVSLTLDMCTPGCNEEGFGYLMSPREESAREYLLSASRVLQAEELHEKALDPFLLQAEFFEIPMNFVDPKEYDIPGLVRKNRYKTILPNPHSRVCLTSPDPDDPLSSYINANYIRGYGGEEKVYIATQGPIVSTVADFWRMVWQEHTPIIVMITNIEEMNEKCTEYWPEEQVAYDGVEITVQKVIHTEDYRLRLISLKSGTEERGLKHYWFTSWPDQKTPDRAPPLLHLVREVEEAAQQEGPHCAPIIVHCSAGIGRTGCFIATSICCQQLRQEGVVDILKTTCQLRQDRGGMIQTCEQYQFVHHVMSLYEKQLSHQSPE
# [5] = molecular target: T1, Small ubiquitin-related modifier 1; assay: SUMO1 protein interaction blockers, potency – biochemical, fluorescence polarization, uHTS hits, dose response (AID 624382); assay type: functional; conditions: read-out: IC50_Mean
# [6] = molecular target: Dual specificity protein phosphatase 3 (Homo sapiens, UniProt P51452); assay: VHR phosphatase inhibition, dose response, selectivity assay for STEP inhibitor project, biochemical (AID 602374); assay type: functional; conditions: read-out: IC50_Mean
# Sequence of Dual specificity protein phosphatase 3 (P51452 whole entry): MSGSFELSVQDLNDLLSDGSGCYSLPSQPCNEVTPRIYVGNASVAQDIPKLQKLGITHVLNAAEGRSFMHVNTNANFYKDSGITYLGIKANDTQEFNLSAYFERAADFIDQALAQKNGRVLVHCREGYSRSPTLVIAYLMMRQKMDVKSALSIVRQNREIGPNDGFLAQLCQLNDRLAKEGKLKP
# [7] = molecular target: Tyrosine-protein phosphatase non-receptor type 11 (Homo sapiens, UniProt Q06124); assay: PTPN11 enzyme inhibitors – biochemical, selectivity assay for STEP inhibitor project, dose response (AID 602367); assay type: functional; conditions: read-out: IC50_Mean
# Sequence of Tyrosine-protein phosphatase non-receptor type 11 (Q06124 whole entry): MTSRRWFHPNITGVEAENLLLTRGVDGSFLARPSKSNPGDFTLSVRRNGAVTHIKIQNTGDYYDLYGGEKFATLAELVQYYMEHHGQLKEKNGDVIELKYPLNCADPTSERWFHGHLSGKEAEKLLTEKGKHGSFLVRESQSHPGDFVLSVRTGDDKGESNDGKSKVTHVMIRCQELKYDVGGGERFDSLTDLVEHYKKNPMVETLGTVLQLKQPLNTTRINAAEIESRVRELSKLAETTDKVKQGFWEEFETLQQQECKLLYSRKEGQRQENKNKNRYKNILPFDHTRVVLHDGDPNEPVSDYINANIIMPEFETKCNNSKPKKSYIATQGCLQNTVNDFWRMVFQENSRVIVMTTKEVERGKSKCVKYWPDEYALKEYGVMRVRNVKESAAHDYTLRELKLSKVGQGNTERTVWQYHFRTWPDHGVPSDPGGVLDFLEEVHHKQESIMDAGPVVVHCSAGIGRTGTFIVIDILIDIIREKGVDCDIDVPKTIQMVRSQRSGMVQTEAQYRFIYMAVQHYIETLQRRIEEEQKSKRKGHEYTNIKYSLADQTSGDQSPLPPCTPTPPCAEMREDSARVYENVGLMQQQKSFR
# Streptokinase A = molecular target: T3, Streptokinase A (Streptococcus pyogenes serotype M1, UniProt P10520); assay: viability-normalized secreted streptokinase activity reduction – plasminogen activation absorbance, OD405, dose response (AID 1914); assay type: functional, Streptococcus pyogenes M1 GAS;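 further: secreted streptokinase activity via plasminogen activation per viability signal from cell pellet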
# T3 sequence (P10520 whole entry): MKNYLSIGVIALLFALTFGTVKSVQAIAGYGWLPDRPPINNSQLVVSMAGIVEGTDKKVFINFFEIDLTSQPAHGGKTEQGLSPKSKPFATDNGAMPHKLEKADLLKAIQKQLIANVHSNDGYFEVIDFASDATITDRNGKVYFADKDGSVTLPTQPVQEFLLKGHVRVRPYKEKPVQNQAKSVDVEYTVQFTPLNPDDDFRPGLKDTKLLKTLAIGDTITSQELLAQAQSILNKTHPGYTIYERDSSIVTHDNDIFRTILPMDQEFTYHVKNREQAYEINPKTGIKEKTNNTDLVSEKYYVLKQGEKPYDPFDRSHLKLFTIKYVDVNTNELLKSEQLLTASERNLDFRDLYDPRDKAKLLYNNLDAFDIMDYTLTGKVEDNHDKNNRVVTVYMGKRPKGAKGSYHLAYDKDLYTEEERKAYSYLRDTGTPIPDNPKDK
# [8] = molecular target: 26S proteasome non-ATPase regulatory subunit 14 (Homo sapiens, UniProt O00487); assay: inhibition of proteasome subunit RPN11 – biochemical, fluorescence polarization, uHTS hits, confirmation (AID 602368); assay type: functional
# Sequence of 26S proteasome non-ATPase regulatory subunit 14 (O00487 whole entry): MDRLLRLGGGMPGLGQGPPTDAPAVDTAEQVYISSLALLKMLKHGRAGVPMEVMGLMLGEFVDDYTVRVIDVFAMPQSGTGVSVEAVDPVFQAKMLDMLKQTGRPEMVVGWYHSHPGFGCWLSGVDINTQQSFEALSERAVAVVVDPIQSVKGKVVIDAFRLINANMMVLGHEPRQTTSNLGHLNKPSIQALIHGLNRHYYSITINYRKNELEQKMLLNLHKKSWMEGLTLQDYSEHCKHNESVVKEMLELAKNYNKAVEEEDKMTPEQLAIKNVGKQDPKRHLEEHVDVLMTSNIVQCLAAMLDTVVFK
# [9] = molecular target: T4, Zinc finger protein mex-5 (Caenorhabditis elegans, UniProt Q9XUB2); assay: potency of MEX-5 RNA-binding blockers – biochemical, C. elegans, fluorescence polarization, dose response (AID 1960)
# T4 sequence (Q9XUB2 whole entry): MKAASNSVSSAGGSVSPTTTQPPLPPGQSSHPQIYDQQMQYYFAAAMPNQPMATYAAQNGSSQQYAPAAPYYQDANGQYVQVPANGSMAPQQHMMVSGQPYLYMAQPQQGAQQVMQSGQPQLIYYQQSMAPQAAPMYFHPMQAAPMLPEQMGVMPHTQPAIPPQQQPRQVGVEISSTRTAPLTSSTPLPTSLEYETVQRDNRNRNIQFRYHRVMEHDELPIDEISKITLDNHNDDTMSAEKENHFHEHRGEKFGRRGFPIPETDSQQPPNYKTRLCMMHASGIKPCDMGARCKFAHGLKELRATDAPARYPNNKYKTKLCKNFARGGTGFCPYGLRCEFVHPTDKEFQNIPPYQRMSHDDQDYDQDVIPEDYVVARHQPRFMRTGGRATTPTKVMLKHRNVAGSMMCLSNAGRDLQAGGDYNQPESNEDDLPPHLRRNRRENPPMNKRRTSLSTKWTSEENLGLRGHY
# [10] = test system: Streptococcus sp. 'group A'; assay: Streptococcus pyogenes SK(-)GAS viability under kanamycin – luminescence, BacTiterGlo, confirmation, counter-screen for streptokinase expression inhibitor project, dose response (AID 1900); assay type: functional, organism-based
# [11] = molecular target: T5, Replicative DNA helicase DnaB (Mycobacterium tuberculosis, UniProt P9WMR3); assay: DnaB intein splicing inhibitors, dose response, biochemical, cell-free fluorescence (AID 449749); assay type: functional
# T5 sequence (P9WMR3 whole entry): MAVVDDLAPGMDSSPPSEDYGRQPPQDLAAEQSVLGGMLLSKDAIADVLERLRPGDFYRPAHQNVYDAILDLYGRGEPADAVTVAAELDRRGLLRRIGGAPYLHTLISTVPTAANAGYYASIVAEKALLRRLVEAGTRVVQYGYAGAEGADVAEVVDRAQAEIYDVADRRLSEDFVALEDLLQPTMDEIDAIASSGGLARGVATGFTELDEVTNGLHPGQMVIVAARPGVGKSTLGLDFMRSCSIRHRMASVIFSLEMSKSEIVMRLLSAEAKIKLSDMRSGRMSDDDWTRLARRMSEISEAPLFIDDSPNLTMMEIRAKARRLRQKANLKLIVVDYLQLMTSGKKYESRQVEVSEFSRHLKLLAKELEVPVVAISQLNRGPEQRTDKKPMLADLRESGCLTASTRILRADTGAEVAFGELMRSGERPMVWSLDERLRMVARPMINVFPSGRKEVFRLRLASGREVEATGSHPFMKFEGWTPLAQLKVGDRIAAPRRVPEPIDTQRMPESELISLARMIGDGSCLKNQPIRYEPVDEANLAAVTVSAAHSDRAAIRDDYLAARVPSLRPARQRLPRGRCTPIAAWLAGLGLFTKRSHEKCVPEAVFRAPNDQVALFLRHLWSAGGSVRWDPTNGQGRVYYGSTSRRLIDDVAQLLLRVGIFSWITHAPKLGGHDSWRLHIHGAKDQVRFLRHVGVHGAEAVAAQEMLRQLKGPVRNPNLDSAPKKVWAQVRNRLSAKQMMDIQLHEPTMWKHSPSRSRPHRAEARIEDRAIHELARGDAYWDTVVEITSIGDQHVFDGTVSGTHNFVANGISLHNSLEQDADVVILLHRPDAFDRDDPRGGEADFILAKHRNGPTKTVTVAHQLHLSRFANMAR
# Protein RecA = molecular target: T6, Protein RecA (Mycobacterium tuberculosis, UniProt P9WHJ3); assay: Fluorescence Cell-Free Homogeneous Dose Retest to Identify Inhibitors of RecA-Intein Splicing Activity. [Related pubchem assays (depositor defined):AID2097, AID2223, AID489010, AID492950]; assay type: functional
# T6 sequence (P9WHJ3 whole entry): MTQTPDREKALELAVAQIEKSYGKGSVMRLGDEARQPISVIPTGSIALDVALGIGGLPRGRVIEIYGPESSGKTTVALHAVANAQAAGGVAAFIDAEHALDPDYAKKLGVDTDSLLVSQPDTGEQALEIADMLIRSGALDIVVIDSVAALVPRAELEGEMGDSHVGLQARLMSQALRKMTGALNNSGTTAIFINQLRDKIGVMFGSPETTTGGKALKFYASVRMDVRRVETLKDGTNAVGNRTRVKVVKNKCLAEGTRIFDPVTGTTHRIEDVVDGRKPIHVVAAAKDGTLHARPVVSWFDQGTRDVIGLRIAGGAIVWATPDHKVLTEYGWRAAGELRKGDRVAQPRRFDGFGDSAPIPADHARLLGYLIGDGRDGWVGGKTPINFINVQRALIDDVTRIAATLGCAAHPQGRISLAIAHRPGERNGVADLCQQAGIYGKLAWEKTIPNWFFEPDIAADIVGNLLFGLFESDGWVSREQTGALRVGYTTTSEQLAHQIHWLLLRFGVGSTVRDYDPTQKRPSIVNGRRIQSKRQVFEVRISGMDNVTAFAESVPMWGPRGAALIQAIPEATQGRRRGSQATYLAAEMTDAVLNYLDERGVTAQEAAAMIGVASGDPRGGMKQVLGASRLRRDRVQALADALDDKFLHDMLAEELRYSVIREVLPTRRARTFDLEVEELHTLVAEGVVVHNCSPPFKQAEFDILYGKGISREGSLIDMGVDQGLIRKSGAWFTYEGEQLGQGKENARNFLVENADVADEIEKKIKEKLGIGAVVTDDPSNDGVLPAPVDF
# [12] = molecular target: T7, RNA-binding protein pos-1 (Caenorhabditis elegans, UniProt G5EF15); assay: disruptors of C. elegans POS-1 RNA interaction – biochemical, fluorescence polarization, dose response (AID 1964);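 further: purified POS-1 fused to maltose binding protein made in E. coli; potency of compounds blocking POS-1 binding to fluorescent RNA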
# T7 sequence (G5EF15 whole entry): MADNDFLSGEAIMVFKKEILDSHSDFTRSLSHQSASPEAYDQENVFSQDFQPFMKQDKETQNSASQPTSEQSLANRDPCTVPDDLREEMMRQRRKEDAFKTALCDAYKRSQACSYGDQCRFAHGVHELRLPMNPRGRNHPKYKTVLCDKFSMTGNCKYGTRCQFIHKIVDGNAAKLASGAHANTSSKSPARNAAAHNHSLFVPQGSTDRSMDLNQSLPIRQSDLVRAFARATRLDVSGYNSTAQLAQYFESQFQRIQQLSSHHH
# Streptococcus = assay: GAS UMAA2166 growth inhibition – luminescence, BacTiterGlo, counter-screen for streptokinase expression inhibitor project, dose response (AID 1915); assay type: functional, organism-based;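 further: potency for reduction of bacterial viability or growth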
# [13] = molecular target: 72 kDa type IV collagenase (Homo sapiens, UniProt P08253); assay: Dose Response validation of uHTS RPN11 inhibitor hits using a MMP-2 Fluorescence assay.; assay type: functional
# Sequence of 72 kDa type IV collagenase (P08253 whole entry): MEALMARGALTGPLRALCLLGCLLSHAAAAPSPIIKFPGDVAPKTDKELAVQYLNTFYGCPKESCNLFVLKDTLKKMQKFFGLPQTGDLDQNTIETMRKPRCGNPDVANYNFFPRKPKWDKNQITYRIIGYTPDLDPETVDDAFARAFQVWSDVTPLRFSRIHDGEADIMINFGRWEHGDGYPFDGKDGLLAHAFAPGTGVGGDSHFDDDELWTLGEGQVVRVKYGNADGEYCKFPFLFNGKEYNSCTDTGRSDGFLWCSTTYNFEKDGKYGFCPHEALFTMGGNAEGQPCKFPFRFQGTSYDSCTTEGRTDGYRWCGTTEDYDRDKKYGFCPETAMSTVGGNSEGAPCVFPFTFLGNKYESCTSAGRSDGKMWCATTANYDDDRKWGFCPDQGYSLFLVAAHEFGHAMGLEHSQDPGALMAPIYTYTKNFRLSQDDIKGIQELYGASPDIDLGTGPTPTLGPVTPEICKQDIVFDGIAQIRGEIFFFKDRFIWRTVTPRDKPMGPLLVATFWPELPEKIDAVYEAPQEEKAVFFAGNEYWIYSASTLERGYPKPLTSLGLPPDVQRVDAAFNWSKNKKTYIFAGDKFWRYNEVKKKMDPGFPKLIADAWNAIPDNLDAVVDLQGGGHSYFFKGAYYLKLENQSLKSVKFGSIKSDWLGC
# Prothrombin = Prothrombin (Bos taurus, UniProt P00735); assay: thrombin protease inhibitors – biochemical, fluorescence polarization, uHTS hits, dose response (AID 602369); assay type: functional
# [14] = molecular target: Adenosylmethionine-8-amino-7-oxononanoate aminotransferase (Mycobacterium tuberculosis, UniProt P9WQ81); assay: Mycobacterium tuberculosis BioA enzyme inhibitor Measured in Biochemical System Using Plate Reader - 2163-02_Inhibitor_Dose_CherryPick_Activity.; assay type: functional, Mycobacterium tuberculosis UT205
# Sequence of Adenosylmethionine-8-amino-7-oxononanoate aminotransferase (P9WQ81 whole entry): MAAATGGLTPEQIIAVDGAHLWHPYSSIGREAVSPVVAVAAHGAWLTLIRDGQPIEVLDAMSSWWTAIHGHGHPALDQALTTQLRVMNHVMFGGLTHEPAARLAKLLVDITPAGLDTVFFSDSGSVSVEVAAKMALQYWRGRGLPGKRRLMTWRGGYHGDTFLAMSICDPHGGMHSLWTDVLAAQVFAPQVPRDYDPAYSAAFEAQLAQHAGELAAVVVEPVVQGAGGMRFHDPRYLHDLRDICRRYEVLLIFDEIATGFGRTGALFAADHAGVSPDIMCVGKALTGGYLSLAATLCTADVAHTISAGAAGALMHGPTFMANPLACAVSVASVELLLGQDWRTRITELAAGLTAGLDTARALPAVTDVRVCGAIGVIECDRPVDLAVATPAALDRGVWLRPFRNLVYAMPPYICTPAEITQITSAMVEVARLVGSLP
# [15] = molecular target: T8, Probable nicotinate-nucleotide adenylyltransferase (Staphylococcus aureus (strain N315), UniProt P65502); assay type: functional, Staphylococcus aureus subsp. aureus N315; conditions: read-out: IC50_Mean;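 on IC50 Mean: confirmatory dose-response retesting of NadD inhibitor hits first found in an ultra-high-throughput screen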
# T8 sequence (P65502 whole entry): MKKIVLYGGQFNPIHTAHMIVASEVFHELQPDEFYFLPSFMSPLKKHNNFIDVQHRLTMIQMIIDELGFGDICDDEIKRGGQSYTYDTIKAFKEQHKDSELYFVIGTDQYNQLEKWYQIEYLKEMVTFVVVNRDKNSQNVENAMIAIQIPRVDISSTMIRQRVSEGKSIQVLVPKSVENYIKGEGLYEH
# [16] = molecular target: T8, Probable nicotinate-nucleotide adenylyltransferase; assay type: functional, Staphylococcus aureus subsp. aureus N315
# [17] = nonselective StAR promoter luciferase inhibitors – cell-based, luminescence, luciferase reporter, counter-screen for LRH-1 inverse agonist project, dose response (AID 651969); assay type: functional
# [18] = molecular target: Nuclear receptor subfamily 5 group A member 2 (Homo sapiens, UniProt O00482); assay type: functional, cell-based;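 further: HEK293T cells transfected with LRH-1 and a StAR promoter luciferase reporter; potency for inhibitors that lower LRH-1 driven reporter light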
# Sequence of Nuclear receptor subfamily 5 group A member 2 (O00482 whole entry): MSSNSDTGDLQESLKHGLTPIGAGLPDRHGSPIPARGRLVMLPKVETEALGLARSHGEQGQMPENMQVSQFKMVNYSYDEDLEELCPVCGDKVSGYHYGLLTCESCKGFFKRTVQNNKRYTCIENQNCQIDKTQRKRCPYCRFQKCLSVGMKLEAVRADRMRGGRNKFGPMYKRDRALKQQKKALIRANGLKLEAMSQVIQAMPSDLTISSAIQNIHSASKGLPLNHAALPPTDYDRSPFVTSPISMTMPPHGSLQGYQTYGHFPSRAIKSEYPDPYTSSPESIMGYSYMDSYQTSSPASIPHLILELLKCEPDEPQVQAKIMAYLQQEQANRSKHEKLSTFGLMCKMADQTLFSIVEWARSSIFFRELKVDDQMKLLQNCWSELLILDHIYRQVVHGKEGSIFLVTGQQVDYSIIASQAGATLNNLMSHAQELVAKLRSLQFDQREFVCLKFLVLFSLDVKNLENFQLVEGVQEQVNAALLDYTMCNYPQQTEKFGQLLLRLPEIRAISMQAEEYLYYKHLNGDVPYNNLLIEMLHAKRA
# Steroidogenic factor 1 = Steroidogenic factor 1 (Homo sapiens, UniProt Q13285); assay: Counterscreen for inverse agonists of the liver receptor homolog-1 (LRH-1; NR5A2): Luminescence-based cell-based high throughput dose response assay to identify inverse agonists of the Steroidogenic Factor 1 Nuclear Receptor (SF1; NR5A1).; assay type: functional
# Sequence of Steroidogenic factor 1 (Q13285 whole entry): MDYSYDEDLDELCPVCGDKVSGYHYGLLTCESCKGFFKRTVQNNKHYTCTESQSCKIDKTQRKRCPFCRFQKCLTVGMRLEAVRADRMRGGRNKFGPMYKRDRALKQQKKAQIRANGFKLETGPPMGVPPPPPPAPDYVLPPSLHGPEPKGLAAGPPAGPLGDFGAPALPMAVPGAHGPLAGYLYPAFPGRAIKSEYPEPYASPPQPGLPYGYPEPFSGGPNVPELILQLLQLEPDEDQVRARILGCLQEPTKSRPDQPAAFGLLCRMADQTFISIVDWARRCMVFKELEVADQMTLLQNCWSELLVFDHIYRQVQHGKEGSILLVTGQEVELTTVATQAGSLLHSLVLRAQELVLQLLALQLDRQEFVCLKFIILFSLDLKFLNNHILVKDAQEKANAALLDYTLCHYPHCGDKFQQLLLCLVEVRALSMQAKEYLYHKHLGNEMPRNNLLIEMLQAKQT
# T1 sequence (P63165 whole entry): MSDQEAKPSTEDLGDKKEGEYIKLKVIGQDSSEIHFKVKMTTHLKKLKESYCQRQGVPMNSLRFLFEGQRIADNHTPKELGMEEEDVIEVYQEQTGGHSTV
structure (smiles),measurement,setting,value
O=C(CSc1nc(-c2ccc(F)cc2)nc2c1Cc1ccccc1O2)Nc1cccc(C(=O)O)c1,IC50,[1],4.27 µM (active)
same,IC50,[2],> 50 µM (not active)
same,IC50,[3],50 µM (inactive)
same,IC50,[4],2.26 µM (active)
same,IC50,[5],> 66.6 µM (inactive)
same,IC50,[6],0.353 µM (active)
same,IC50,[7],0.443 µM (active)
O=C(N/N=C/c1cc(Cl)cc([N+](=O)[O-])c1O)c1ccccc1NS(=O)(=O)c1cccs1,EC50,Streptokinase A,> 150 µM (not active)
same,IC50,[8],10.4 µM (active)
same,EC50,[9],1.56 µM (inconclusive)
same,EC50,[10],4.31 µM (active)
same,AC50,[11],15.9 µM (active)
same,EC50,Protein RecA,67.2 µM (active)
same,EC50,[12],282 µM (active)
same,EC50,Streptococcus,18.9 µM (active)
same,IC50,[13],> 100 µM (inactive)
same,IC50,Prothrombin,85.5 µM (active)
O=C(C[C@@H]1C[C@H]2c3cc(NC(=O)c4cccnc4)ccc3O[C@H]2[C@@H](CO)O1)NCc1cc(F)ccc1F,AC50,[14],12.6 µM (active)
O=C(Nc1cccc(F)c1)C1CCCN(c2cnccn2)C1 (configuration not stated),AC50,[14],5.41 µM (active)
Cc1ccc(C)c(N2CCN(S(=O)(=O)c3ccc4nc(O)c(O)nc4c3)CC2)c1,IC50,[15],25.9 µM (active)
same,IC50,[16],5.39 µM (active)
CC(=O)c1ccc(NC(=O)C(C)ONC(=N)c2ccccc2)cc1 (configuration not stated),IC50,[17],35.9 µM (inactive)
same,IC50,[18],23.8 µM (inactive)
same,IC50,Steroidogenic factor 1,6.11 µM (active)
Cc1cccc(C)c1Nc1nnc(SC/C(O)=C(\C#N)c2nc3ccccc3[nH]2)s1,IC50,[15],25.2 µM (active)
same,IC50,[16],9.49 µM (active)
COc1ccccc1NC(=O)CN1CCN(CC(=O)Nc2ccc(S(N)(=O)=O)cc2)CC1,IC50,[17],35.9 µM (inactive)
same,IC50,[18],25.9 µM (inactive)
same,IC50,Steroidogenic factor 1,6.64 µM (active)
O=C(O)CCCCN1C(=O)/C(=C\c2ccc(OCc3ccccc3)c(OCc3ccccc3)c2)SC1=S,IC50,[8],45.4 µM (active)
same,IC50,[13],> 100 µM (inactive)
same,IC50,Prothrombin,29.3 µM (active)
